What was measured:
[1] = system: sebaceous gland activity; details: Hunt D. et al. J Invest Dermatol. 2017; cited from earlier work
[2] = system: sebocytes; details: Hunt D. et al. J Invest Dermatol. 2017; cited from earlier work
[3] = system: immortalized human sebocyte cell line, SZ95; experiment: In vitro assay of inhibition of lipid synthesis; type: cell-based; details: 48 h, SZ95 sebocytes
Outline: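 Human SZ95 sebocytes were preincubated with compound for 30 min, then stimulated with 75 μM arachidonic acid for 48 h at 37 °C. Neutral lipids were stained with AdipoRed and read by fluorescence (ex 485/em 535). % inhibition was normalized between AA-stimulated and unstimulated cells.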

[4] = lipid synthesis induced by 75 μM arachidonic acid, AdipoRed fluorescence, Table 1
[5] = 75 μM arachidonic acid, AdipoRed, Table 2, finer classes for compounds with IC50 less than 250 nM

SMILES	activity in an in vivo model of sebaceous gland activity [1]	potency inhibiting sebum production by sebocytes [2]	IC50 [3, 4]	IC50 [3, 5]
CCCCCCCCCCCCCCOc1ccc(C(=O)OCC(=O)N(C)CC(=O)OCC)o1 [Olumacostat Glasaretil]	poor activity	low potency	–	–
CCCCCCCCCCCCCc1c[nH]c(C(=O)O)c1C [Example 101, 3-Methyl-4-tridecyl-1H-pyrrole-2-carboxylic acid]	–	–	1 to 5 µM	–
CCCCCCCCCCCCCCCc1cc(F)c(C(=O)O)[nH]1 [Example 122, 3-Fluoro-5-pentadecyl-1H-pyrrole-2-carboxylic acid]	–	–	< 0.25 µM	0.05 to 0.1 µM
CCCCCCCCCCCCCc1c[nH]c(C(=O)OCCCCCCCCCO)c1F [Example 39, 9-Hydroxynonyl 3-fluoro-4-tridecyl-1H-pyrrole-2-carboxylate]	–	–	< 0.25 µM	< 0.05 µM
CCCCCCCCCCCCCCCCc1c[nH]c(C(=O)O)c1Cl [Example 63, 3-Chloro-4-hexadecyl-1H-pyrrole-2-carboxylic acid]	–	–	0.25 to 1 µM	–
CCCCCCCCCCCCOc1c[nH]c(C(=O)OCC(F)(F)F)c1 [Example 5, 2,2,2-Trifluoroethyl 4-(dodecyloxy)-1H-pyrrole-2-carboxylate]	–	–	0.25 to 1 µM	–
CCCCCCCCCCCCCc1c[nH]c(C(=O)OCCOCCOCC)c1F [Example 43, 2-(2-Ethoxyethoxy)ethyl 3-fluoro-4-tridecyl-1H-pyrrole-2-carboxylate]	–	–	< 0.25 µM	< 0.05 µM
CCCCCCCCCCCOc1c[nH]c(C(=O)OCCOCCOCC)c1F [Example 104, 2-(2-Ethoxyethoxy)ethyl 3-fluoro-4-(undecyloxy)-1H-pyrrole-2-carboxylate]	–	–	< 0.25 µM	0.1 to 0.25 µM
CCCCCCCCCCCCc1c[nH]c(C(=O)OC(C)OC(=O)OCCOC)c1F (centres unmarked) [Example 18, 1-(((2-Methoxyethoxy)carbonyl)oxy)ethyl 4-dodecyl-3-fluoro-1H-pyrrole-2-carboxylate]	–	–	< 0.25 µM	0.1 to 0.25 µM
CCCCCCCCCCCCOc1c[nH]c(C(=O)OCCCCCCCCCO)c1Cl [Example 82, 9-Hydroxynonyl 3-chloro-4-(dodecyloxy)-1H-pyrrole-2-carboxylate]	–	–	< 0.25 µM	0.1 to 0.25 µM

— US20210220328A1, “PYRROLE DERIVATIVES AS ACC INHIBITORS” (Almirall, S.A., priority 2017, published 2021)
